Values quoted from earlier work as cited in patent US7022306B1, “Process for the production of hydrogen” (UOP LLC, priority 2003, dated 2006).
Where two headings read alike, the source gives them in different places.

Legend:
[1] = system: Rat
[2] = system: Rat; remark: listed apart in the source

SMILES	Toxicity LD50 (mg/kg) Oral-Rat [2] [mg/kg]	further results
CCCC [Butane]		Toxicity LC50 (mg/liter) Inhalation-Rat ([1]; for 4 hours): 658 for 4 hours mg/liter
CC(C)O [Isopropanol]	5045	
CC(C)OC(C)C [Isopropylether]	8470	
C [Methane]		Toxicity LC50 (mg/liter) Inhalation-Rat [1]: >5 mg/L
CCCCC [Pentane]	>2000	
OC[C@@H](O)[C@@H](O)[C@H](O)[C@@H](O)CO [Sorbitol]	15900	
